Assay results as given in ChEMBL document CHEMBL1129143, “Synthesis and acetylcholinesterase inhibitory activity of fluorinated analogues of huperzine A” (Bioorg Med Chem Lett, 1996).

What follows are compounds tested against Acetylcholinesterase (Homo sapiens, UniProt P22303) (assay: In vitro inhibitory activity against Acetylcholinesterase (AChE).).
Chain of Acetylcholinesterase (P22303 whole entry): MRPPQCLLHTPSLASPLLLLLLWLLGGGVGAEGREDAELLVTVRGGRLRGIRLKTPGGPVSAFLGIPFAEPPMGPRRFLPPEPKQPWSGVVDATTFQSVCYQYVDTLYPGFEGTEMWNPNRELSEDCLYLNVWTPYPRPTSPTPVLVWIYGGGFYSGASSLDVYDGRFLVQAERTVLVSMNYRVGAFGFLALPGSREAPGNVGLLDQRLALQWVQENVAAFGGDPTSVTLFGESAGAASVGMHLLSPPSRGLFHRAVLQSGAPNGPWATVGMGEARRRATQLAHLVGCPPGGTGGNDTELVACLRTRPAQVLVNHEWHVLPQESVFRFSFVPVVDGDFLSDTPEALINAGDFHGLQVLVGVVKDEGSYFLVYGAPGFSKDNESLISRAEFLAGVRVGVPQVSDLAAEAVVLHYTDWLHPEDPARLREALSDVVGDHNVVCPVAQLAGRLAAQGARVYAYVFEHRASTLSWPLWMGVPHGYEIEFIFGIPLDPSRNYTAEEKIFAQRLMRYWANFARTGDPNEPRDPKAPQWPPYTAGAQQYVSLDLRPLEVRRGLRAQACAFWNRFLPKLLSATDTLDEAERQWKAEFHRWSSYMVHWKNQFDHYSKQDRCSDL

| SMILES | IC50 |
| --- | --- |
| C/C=C1\C2C=C(C(F)(F)F)CC1(N)c1ccc(=O)[nH]c1C2 (stereo not drawn) | 400 nM |
| CC1=CC2Cc3nc(O)ccc3C(N)(C1)/C2=C/C(F)(F)F (stereo not drawn) | 2000 nM |
| NC12CC(C(F)(F)F)=CC(Cc3nc(O)ccc31)/C2=C\C(F)(F)F (stereo not drawn) | 3000 nM |
